Values quoted from earlier work, collected in article PMC12207880 (The Oncologist, 2025).
Like-named read-outs stand apart in the source and are kept apart here.

What was measured:
[1] = tested on: patients treated with endocrine therapy combined with palbociclib
advanced solid tumors = tested on: advanced solid tumors; parameters: method as in earlier work
[2] = 200 mg BID
[3] = tested on: patients treated with abemaciclib alone
[4] = sample size 132, U.S.A, France, Netherland
[5] = sample size 33 (escalation phase), U.S.A

Compound: CC(=O)c1c(C)c2cnc(Nc3ccc(N4CCNCC4)cn3)nc2n(C2CCCC2)c1=O [Palbociclib, palbociclib]
- grade 4 increased GGT ([1]; 1 of 135 patients): 0.7%
- grade 3 increased GGT ([1]; 3 of 135 patients): 2.2%
- overall incidence of increased GGT ([1]; 135 patients): 4.4%
- Overall DCR (advanced solid tumors; sample size 37, U.S.A): 35%
- Overall ORR (advanced solid tumors; sample size 37, U.S.A): 0%

Compound: CN(C)C(=O)c1cc2cnc(Nc3ccc(N4CCNCC4)cn3)nc2n1C1CCCC1 [Ribociclib, ribociclib]
- Overall DCR (advanced solid tumors; [4]): 32.6%
- Overall ORR (advanced solid tumors; [4]): 2.3%

Compound: CCN1CCN(Cc2ccc(Nc3ncc(F)c(-c4cc(F)c5nc(C)n(C(C)C)c5c4)n3)nc2)CC1 [Abemaciclib, abemaciclib]
- Ctrough ([2]; n=5): 210 (89%, n=5) ng/mL
- Ctrough ([2]; n=52): 197 (82%, n=52) ng/mL
- hypokalaemia of grade 3 [3]: 2 patients
- hypokalaemia of all grades ([3]; 34 of 130 patients): 26.2%
- Overall DCR (advanced solid tumors; sample size 25, China): 68.0%
- Overall ORR (advanced solid tumors; sample size 25, China): 8.0%
- Overall DCR (advanced solid tumors; [5]): 48.5%
- Overall ORR (advanced solid tumors; [5]): 0%
